Earlier results on one compound are cited in paper PMC11215771 (Journal of Medicinal Chemistry, 2024).

The data set relates to BACE1. The note with it: cited from earlier work.

Turning to `C[C@@H](NC(=O)c1cc(C(=O)N[C@@H](Cc2ccccc2)[C@H](O)CNC2CC2)cc(N(C)S(C)(=O)=O)c1)c1ccccc1` [C3], the IC50 entry is listed as “nanomolar range”.
